The source of these data is article PMC3694296, “11β-Hydroxysteroid dehydrogenase type 1 contributes to the balance between 7-keto- and 7-hydroxy-oxysterols in vivo” (Biochemical Pharmacology, 2013).

Assay [1] concerns the target T1, 11β-hydroxysteroid dehydrogenase type 1 (murine 11βHSD1, m11βHSD1) (Mus musculus, UniProt P50172).
T1 construct: gene Hsd11b1; truncated form of recombinant m11βHSD1 protein (N23Δ)
As to the kind of experiment: competitive inhibition of 11-DHC reduction by recombinant enzyme (Dixon plot, HPLC); also itself reduced as a poor substrate (Km […]). The assay is classed as biochemical.

Assay [2] deals with T1, 11β-hydroxysteroid dehydrogenase type 1 (murine 11βHSD1, m11βHSD1). Description: competitive inhibition of corticosterone oxidation by recombinant enzyme (Dixon plot, HPLC); also itself oxidised as a poor substrate (Km […]). It is filed as biochemical.

T1 sequence (P50172 24-292): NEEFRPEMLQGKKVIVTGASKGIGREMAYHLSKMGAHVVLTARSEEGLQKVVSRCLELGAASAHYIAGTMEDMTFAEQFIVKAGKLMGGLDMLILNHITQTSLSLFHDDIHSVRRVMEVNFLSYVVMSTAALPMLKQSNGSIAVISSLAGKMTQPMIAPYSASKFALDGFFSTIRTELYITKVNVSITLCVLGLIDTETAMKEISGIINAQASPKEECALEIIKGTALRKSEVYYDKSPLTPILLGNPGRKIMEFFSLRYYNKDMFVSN

In general, Ki refers to a dissociation constant, usually derived from enzyme kinetics or from competition with a known ligand. `CC(C)CCC[C@@H](C)[C@H]1CC[C@H]2[C@@H]3C(=O)C=C4C[C@@H](O)CC[C@]4(C)[C@H]3CC[C@]12C` [7KC, 7-ketocholesterol]: in assay [1], the Ki came to 7.33 ± 1.76 µM. With `CC(C)CCC[C@@H](C)[C@H]1CC[C@H]2[C@@H]3[C@@H](O)C=C4C[C@@H](O)CC[C@]4(C)[C@H]3CC[C@]12C` [7βOHC, 7β-hydroxycholesterol], the Ki in assay [2] was 910 ± 50 nM.
